Literature values, collected in patent publication US20240197632A1 (VETERINARY PHARMACY CORPORATION, priority 2022, published 2024).

- general solubility property in water: 0.0021 % wt/vol
SMILES: CC(C)Cc1ccc(C(C)C(=O)O)cc1 (stereo not shown) [Ibuprofen, 2-(4-Isobutylphenyl)propanoic acid]
